The values below come from patent US8841299B2, “Substituted pyrrolo[1,2-a]pyrazines as tankyrase inhibitors” (Hoffman-La Roche Inc., priority 2012, dated 2014).

For one experiment, the target named is T1, Tankyrase 1 (TNKS1) (Homo sapiens, UniProt O95271).
T1 construct: His6-TNKS1, MW=28.2 KDa (construct: 1088-1327, I266M)
Nature of the experiment: μHTS-TNKS-IWR2 TR-FRET binding assay, TNKS1. How it is done: (§1) μHTS-TNKS-IWR2 TR-FRET Binding Assay
(§2) (10 μL/well in BD1536-well plate, a single point)
(§3) Biotin-IWR2: 10 mM Biotin-IWR2 stock in DMSO, stored at −20° C.
(§4) Assay buffer 1a (AB1a) for TNKS dilution: 50 mM Tris, pH 7.4, 100 mM sodium chloride solution, 1 mM magnesium chloride solution, 1 mM DL-dithiothreitol solution, 0.2 mg/mL bovine serum albumin solution, 0.025% NP-40.
(§5) Assay buffer 1b (AB1b) for Biotin-IWR2 dilution: 50 mM Tris, pH 7.4, 100 mM sodium chloride solution, 1 mM magnesium chloride solution, 1 mM DL-dithiothreitol solution, 0.2 mg/mL bovine serum albumin solution, 0.05% NP-40
(§6) Assay buffer 1c (AB1c) for compound dilution: 50 mM Tris, pH 7.4, 100 mM sodium chloride solution, 1 mM magnesium chloride solution, 1 mM DL-dithiothreitol solution, 0.2 mg/mL bovine serum albumin solution
(§7) Assay buffer 2 (AB2) for Eu/APC: 50 mM Tris, pH 7.4, 100 mM sodium chloride solution, 1 mM magnesium chloride solution, 0.2 mg/mL bovine serum albumin solution
(§8) Prepare BLANK well stock solution: 5% DMSO/AB1b buffer
(§9) Prepare TNKS1 stock solution (5× stock): 300 nM TNKS in AB1a buffer
(§10) Transfer 3 μL/well of above solution (solution 1, 2, 3) to an empty assay plate (BD1536-well plate) as follows:
(§11) TOTAL and cpd wells: Solution 1 (Biotin-IWR2):
(§12) BLANK wells: Solution 2 (No Biotin-IWR2):
(§13) POSITIVE CONTROL wells: Solution 3 (Biotin-IWR2+XAV939)
(§14) Transfer 3 μL/well of the above diluted compound solutions or compound dilution buffer to the above assay plate.
(§15) Add 2 μL/well of 300 nM TNKS stock solution (4) to every well in the above assay plate
(§16) Centrifuge the assay plate at 2100 rpm for 2 minutes.
(§17) Incubate the assay plate at 26° C. for 30 minutes.
(§18) Add 2 μL/well 3.5 nMEu/50 nM APC solution (5) to every well in the above assay plate.
(§19) Incubate the assay plate at 26° C. for 60 minutes.

The target in another experiment is T2, tankyrase 2 (TNKS2) (Homo sapiens, UniProt Q9H2K2).
T2 construct: His6-tankyrase 2 (construct: 934-1166) (His6-TNKS2)
Nature of the experiment: μHTS-TNKS-IWR2 TR-FRET binding assay, TNKS2 in place of TNKS1. The note with it: His6-TNKS2 (construct 934-1166), Biotin-IWR2 60 nM. How it is done: as §1, §2
(§20) Tankyrase 1 (TNKS1): 184.3 μM=5.2 mg/mL His6-TNKS1, MW=28.2 KDa (construct: 1088-1327, I266M) in 20 mM Tris pH 8, 150 mM NaCl, 10% glycerol, and 0.5 mM TCEP Alternatively, in place of His6-TNKS1 can use either His6-tankyrase 2 (construct: 934-1166) (His6-TNKS2) or His6-PARP1 (full length).
as §3
Positive control: 10 mM XAV 939 in DMSO, stored at −20° C.
(§21) Eu-Streptavidin: 38.1 μM (2.1 mg/mL) Eu-SA (Bio #Eu-2212, Lot #N 18001-BDHO2)
(§22) APC-anti-His Ab: 8.50 μM SL-APC, 8.26 μM anti-6His antibody-SureLight APC (Columia Bioscience, Cat #D3-1711, Lot #N01010-AAH04)
(§23) Assay plate: BD 1536-well, clear/black plate (Cat #353255)
as §4, §5, §6, §7
(§24) Prepare Biotinylated IWR2 stock solution (3.33× stock) for TOTL and cpd wells: 200 nM Biotin-IWR2 in 5% DMSO/AB1b buffer
as §8
(§25) Prepare POSITIVE CONTROL well stock solution (3.33× stock): 200 nM XAV939 in 200 nM Biotin-IWR2/5% DMSO/AB1b buffer
as §9
(§26) (Alternatively, use TNKS2 or PARP1 stock solutions.)
(§27) Prepare Eu/APC stock solution (5× stock): 3.5 nM Eu-SA/50 nM APC-His6Ab in AB2 buffer
(§28) Add 25 μL/well 1.5% DMSO/AB1c buffer in each compound well to the compound concentration at 74 μM in 8.8% DMSO/AB1c buffer or in the 2 μL DMSO CONTROL wells (BLANK, TOTAL and POSITIVE wells) in the compound plate.
as §10, §11, §12, §13, §14, §15, §16, §17, §18, §19
(§29) Read the assay plate immediately at excitation wavelength of 330 nm and emission wavelength of […] in time resolved fluorescence mode.
XAV939 (+ve control): 60 nM at ˜70% Inhibition
(§30) General Library compounds: 22.23 μM in 4% DMSO
Background: In TR-FRET formats the signal depends on donor and acceptor labels being close together.

Another experiment addresses T3, PARP1 (Homo sapiens, UniProt P09874).
T3 construct: or His6-PARP1 (full length)
The experiment can be described thus: μHTS-TNKS-IWR2 TR-FRET binding assay, PARP1 in place of TNKS1. The note with it: His6-PARP1 (full length), Biotin-IWR2 60 nM. How it is done: as §1, §2, §20, §3
Positive control: 10 mM […] in DMSO, stored at −20° C.
as §21, §22, §23, §4, §5, §6, §7, §24, §8, §25, §9, §26, §27, §28, §10, §11, §12, §13, §14, §15, §16, §17, §18, §19, §29, §30

T2 sequence (Q9H2K2 934-1166): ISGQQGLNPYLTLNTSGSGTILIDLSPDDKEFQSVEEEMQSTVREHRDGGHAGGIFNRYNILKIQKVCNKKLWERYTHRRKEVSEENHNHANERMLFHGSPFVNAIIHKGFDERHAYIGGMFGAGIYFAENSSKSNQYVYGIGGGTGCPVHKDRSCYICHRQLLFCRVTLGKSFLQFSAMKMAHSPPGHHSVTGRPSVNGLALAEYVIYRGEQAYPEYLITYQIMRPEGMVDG
T3 sequence (P09874 whole entry): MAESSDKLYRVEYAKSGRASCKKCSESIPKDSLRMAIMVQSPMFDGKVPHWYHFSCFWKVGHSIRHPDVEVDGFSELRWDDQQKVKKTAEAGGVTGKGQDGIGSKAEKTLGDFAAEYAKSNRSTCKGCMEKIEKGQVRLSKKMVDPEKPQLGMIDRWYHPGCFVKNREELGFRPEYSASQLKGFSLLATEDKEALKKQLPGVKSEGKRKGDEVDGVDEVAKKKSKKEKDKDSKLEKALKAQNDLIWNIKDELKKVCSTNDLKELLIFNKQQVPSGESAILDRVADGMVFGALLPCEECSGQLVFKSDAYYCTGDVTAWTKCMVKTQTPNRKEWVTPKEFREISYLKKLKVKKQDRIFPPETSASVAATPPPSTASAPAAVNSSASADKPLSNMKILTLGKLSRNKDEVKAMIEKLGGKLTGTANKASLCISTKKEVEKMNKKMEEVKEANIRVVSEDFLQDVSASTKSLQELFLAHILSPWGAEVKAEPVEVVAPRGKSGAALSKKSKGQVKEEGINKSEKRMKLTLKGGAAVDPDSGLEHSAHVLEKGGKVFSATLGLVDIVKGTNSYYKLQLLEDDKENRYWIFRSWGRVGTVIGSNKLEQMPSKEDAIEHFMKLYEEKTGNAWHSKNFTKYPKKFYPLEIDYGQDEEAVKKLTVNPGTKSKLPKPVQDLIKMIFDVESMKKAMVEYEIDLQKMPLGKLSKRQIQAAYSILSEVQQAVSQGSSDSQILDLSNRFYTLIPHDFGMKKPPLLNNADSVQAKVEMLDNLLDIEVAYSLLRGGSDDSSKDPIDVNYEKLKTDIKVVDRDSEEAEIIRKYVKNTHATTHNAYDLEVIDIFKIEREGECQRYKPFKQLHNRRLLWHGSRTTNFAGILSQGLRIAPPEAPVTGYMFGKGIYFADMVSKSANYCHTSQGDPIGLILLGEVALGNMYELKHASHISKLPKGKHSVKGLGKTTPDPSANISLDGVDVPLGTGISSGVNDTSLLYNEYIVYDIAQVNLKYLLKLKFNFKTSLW
T1 sequence (O95271 1088-1327): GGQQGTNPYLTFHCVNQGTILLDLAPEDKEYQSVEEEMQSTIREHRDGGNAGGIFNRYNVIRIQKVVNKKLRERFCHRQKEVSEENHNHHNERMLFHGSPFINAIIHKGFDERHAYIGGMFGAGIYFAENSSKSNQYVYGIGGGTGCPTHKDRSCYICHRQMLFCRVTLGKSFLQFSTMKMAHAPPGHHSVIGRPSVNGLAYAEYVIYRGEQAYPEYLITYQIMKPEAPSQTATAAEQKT

Turning to `COc1ccc(-c2cn3c(Br)ccc3c(=O)[nH]2)cc1` [Example 1, 6-Bromo-3-(4-methoxy-phenyl)-2H-pyrrolo[1,2-a]pyrazin-1-one], the results for the IC50 at Tankyrase 1 (TNKS1), at tankyrase 2 (TNKS2) and at PARP1 were 54 nM, 145 nM and greater than 50000 nM, respectively.
`N#Cc1ccc2c(=O)[nH]c(-c3ccc(C(F)(F)F)cc3)cn12` [Example 2, 1-Oxo-3-(4-trifluoromethyl-phenyl)-1,2-dihydro-pyrrolo[1,2-a]pyrazine-6-carbonitrile]: the IC50 was 232 nM on Tankyrase 1 (TNKS1), 995 nM on tankyrase 2 (TNKS2) and 31200 nM on PARP1.
`N/C(=N\O)c1ccc2c(=O)[nH]c(-c3ccc(C(F)(F)F)cc3)cn12` [Example 3, N-Hydroxy-1-oxo-3-(4-trifluoromethyl-phenyl)-1,2-dihydro-pyrrolo[1,2-a]pyrazine-6-carboxamidine]: the IC50 is 192 nM at Tankyrase 1 (TNKS1), 1260 nM at tankyrase 2 (TNKS2) and greater than 50000 nM on PARP1.
For the molecule `NC(=O)c1ccc2c(=O)[nH]c(-c3ccc(C(F)(F)F)cc3)cn12` [Example 4, 1-Oxo-3-(4-trifluoromethyl-phenyl)-1,2-dihydro-pyrrolo[1,2-a]pyrazine-6-carboxylic acid amide], the IC50 on Tankyrase 1 (TNKS1) was 770 nM; on tankyrase 2 (TNKS2), 1900 nM; on PARP1, 29500 nM.
As for `N=C(N)c1ccc2c(=O)[nH]c(-c3ccc(C(F)(F)F)cc3)cn12` [Example 5, 1-Oxo-3-(4-trifluoromethyl-phenyl)-1,2-dihydro-pyrrolo[1,2-a]pyrazine-6-carboxamidine], the values for the IC50 at Tankyrase 1 (TNKS1), at tankyrase 2 (TNKS2) and on PARP1 were 6790 nM, 12700 nM and greater than 50000 nM, respectively.
With `O=c1[nH]c(-c2ccc(C(F)(F)F)cc2)cn2c(C3=NCCN3)ccc12` [Example 6, 6-(4,5-Dihydro-1H-imidazol-2-yl)-3-(4-trifluoromethyl-phenyl)-2H-pyrrolo[1,2-a]pyrazin-1-one], the IC50 is 1110 nM on Tankyrase 1 (TNKS1), 1840 nM on tankyrase 2 (TNKS2) and 34900 nM at PARP1.
Regarding `Cc1ccc2c(=O)[nH]c(-c3ccc(C(F)(F)F)cc3)cn12` [Example 7, 6-Methyl-3-(4-trifluoromethyl-phenyl)-2H-pyrrolo[1,2-a]pyrazin-1-one], the IC50 at Tankyrase 1 (TNKS1) stood at 32 nM; on tankyrase 2 (TNKS2), 72 nM; at PARP1 it was 172 nM.
On the same counts, the results for `O=c1[nH]c(-c2ccc(C(F)(F)F)cc2)cn2c(CO)ccc12` [Example 8, 6-Hydroxymethyl-3-(4-trifluoromethyl-phenyl)-2H-pyrrolo[1,2-a]pyrazin-1-one] are 17 nM, 715 nM and 11400 nM.
For `Cc1ccc2c(=O)[nH]c(N3CCN(c4ccccc4F)CC3)cn12` [Example 9, 3-[4-(2-Fluoro-phenyl)-piperazin-1-yl]-6-methyl-2H-pyrrolo[1,2-a]pyrazin-1-one], the IC50 at Tankyrase 1 (TNKS1) amounted to 68 nM; on tankyrase 2 (TNKS2), 68 nM; at PARP1 it was 2740 nM.
Consider `O=c1[nH]c(-c2ccc(C(F)(F)F)cc2)cn2c(Br)ccc12` [Example 10, 6-Bromo-3-(4-trifluoromethyl-phenyl)-2H-pyrrolo[1,2-a]pyrazin-1-one], for which the IC50 on Tankyrase 1 (TNKS1) was 56 nM; at tankyrase 2 (TNKS2), 158 nM; at PARP1 it was 1250 nM.

A word on the IC50: it is the concentration that inhibits the measured activity by half. A lower IC50 goes with greater potency in that assay.
